Experiment [1] deals with T1, human H1 (Homo sapiens, UniProt P35367).
T1 construct: host or cells: CHO-K1
Kind of experiment: In vitro histamine receptor cell-based assay (aequorin bioluminescence), H1 antagonism. As to conditions: CHO-K1 cells expressing human H1 and aequorin; histamine at EC80; read-out: H1 Antagonist EC50. As for the experimental part: (§1) The cell-based assays utilize an aequorin dependent bioluminescence signal. Doubly-transfected, stable CHO-K1 cell lines expressing human H1 or H4, mitochondrion-targeted aequorin, and (H4 only) human G protein Gα16 are obtained from Perkin-Elmer. Cells are maintained in F12 (Ham's) growth medium, containing 10% (vol./vol.) fetal bovine serum, penicillin (100 IU/mL), streptomycin (0.1 mg/mL), zeocin (0.25 mg/mL) and geneticin (0.40 mg/mL). Cell media components are from Invitrogen, Inc. One day prior to assay, the growth medium is replaced with the same, excluding zeocin and geneticin.
(§2) For assay preparation, growth medium is aspirated, and cells are rinsed with calcium-free, magnesium-free phosphate-buffered saline, followed by two to three minute incubation in Versene (Invitrogen, Inc.) at 37° C. Assay medium (DMEM:F12 [50:50], phenol-red free, containing 1 mg/mL protease-free bovine serum albumin) is added to collect the released cells, which are then centrifuged. The cell pellet is re-suspended in assay medium, centrifuged once more, and re-suspended in assay medium to a final density of 5×10^6 cells/mL. Coelenterazine-h dye (500 μM in ethanol) is added to a final concentration of 5 μM, and mixed immediately. The conical tube containing the cells is then wrapped with foil to protect the light-sensitive dye. The cells are incubated for four hours further at room temperature (approximately 21° C.) with end-over-end rotation to keep them in suspension.
(§3) Just before assay, the dye-loaded cells are diluted to 0.75×10^6 cells/mL (H1 receptor) or 1.5×10^6 cells/mL (H4 receptor) with additional assay medium. Cells are dispensed to 1536 well micro-titer plates at 3 μL/well. To assay receptor antagonism, 60 nl of 100× concentration test compounds in 100% dimethyl sulfoxide (DMSO) are dispensed to the wells, one compound per well, by passive pin transfer, and the plates are incubated for 15 minutes at room temperature. Assay plates are then transferred to a Lumilux bioluminescence plate reader (Perkin-Elmer) equipped with an automated 1536 disposable tip pipette. The pipette dispenses 3 μL/well of agonist (histamine, at twice the final concentration, where final concentration is a previously determined EC80) in assay medium, with concurrent bioluminescence detection. […]
(§4) CCD image capture on the Lumilux includes a 5 second baseline read prior to agonist addition, and generally a 40 second read per plate after agonist addition. A decrease in bioluminescence signal (measured either as area-under-the-curve, or maximum signal amplitude minus minimum signal amplitude) correlates with receptor antagonism in a dose dependent manner. […] Efficacy is measured as a percentage of positive control activity.

Experiment [2] deals with T2, human H4 (Homo sapiens, UniProt Q9H3N8).
T2 construct: host or cells: CHO-K1
Kind of experiment: In vitro histamine receptor cell-based assay (aequorin bioluminescence), H4 antagonism. Conditions: CHO-K1 cells expressing human H4, aequorin and Gα16; histamine at EC80; read-out: H4 Antagonist EC50. On the procedure: as §1, §2, §3, §4

pEC50: −log10 of the molar value. Some results are limits rather than exact numbers.

T2 sequence (Q9H3N8 whole entry): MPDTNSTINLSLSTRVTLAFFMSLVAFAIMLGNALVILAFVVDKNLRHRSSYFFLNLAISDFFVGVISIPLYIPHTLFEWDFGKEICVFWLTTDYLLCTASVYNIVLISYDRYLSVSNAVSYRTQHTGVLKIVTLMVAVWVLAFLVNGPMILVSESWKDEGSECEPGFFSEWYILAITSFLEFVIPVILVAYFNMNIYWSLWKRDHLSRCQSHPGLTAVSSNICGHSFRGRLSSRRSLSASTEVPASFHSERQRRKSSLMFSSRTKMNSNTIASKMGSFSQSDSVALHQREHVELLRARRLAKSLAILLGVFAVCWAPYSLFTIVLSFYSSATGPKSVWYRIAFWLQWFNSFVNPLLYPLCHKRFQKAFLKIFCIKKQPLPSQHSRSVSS
T1 sequence (P35367 whole entry): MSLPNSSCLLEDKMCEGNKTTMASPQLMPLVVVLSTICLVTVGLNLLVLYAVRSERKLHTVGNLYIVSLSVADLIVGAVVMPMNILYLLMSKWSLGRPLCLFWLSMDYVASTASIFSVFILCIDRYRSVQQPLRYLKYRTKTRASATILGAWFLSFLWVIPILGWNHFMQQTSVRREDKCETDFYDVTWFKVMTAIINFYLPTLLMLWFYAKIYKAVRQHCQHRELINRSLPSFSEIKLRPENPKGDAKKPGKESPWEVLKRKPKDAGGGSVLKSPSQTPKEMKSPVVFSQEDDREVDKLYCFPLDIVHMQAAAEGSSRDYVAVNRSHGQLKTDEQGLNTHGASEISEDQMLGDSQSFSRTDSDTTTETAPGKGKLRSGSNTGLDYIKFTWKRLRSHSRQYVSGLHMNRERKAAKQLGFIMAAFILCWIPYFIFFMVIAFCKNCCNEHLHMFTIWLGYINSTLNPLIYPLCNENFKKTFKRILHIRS

As to `Cc1nc2c3cc(Cl)sc3nc(N3CCN(C)CC3)n2n1` [Example 1, 8-chloro-2-methyl-5-(4-methylpiperazin-1-yl)thieno[3,2-e][1,2,4]triazolo[1,5-c]pyrimidine], the pEC50 in experiment [1] was under 5.00; in experiment [2] it was at least 5.00.
For `Cc1nc2c3sc(Cl)cc3nc(N3CCNCC3)n2n1` [Example 4, 8-chloro-2-methyl-5-(piperazin-1-yl)thieno[2,3-e][1,2,4]triazolo[1,5-c]pyrimidine], in that order: under 5.00 and under 5.00.
With `Cc1nc2c3sc(Cl)cc3nc(N3CCN(C)CC3)n2n1` [Example 3, 8-chloro-2-methyl-5-(4-methylpiperazin-1-yl)thieno[2,3-e][1,2,4]triazolo[1,5-c]pyrimidine], the figures for the negative logarithm of the EC50 (pEC50) in experiment [1] and in experiment [2] were under 5.00 and at least 5.00, respectively.
For `Cc1nc2c3cc(Cl)sc3nc(N3CCNCC3)n2n1` [Example 2, 8-chloro-2-methyl-5-(piperazin-1-yl)thieno[3,2-e][1,2,4]-triazolo[1,5-c]pyrimidine], in that order: under 5.00 and at least 5.00.

The values above are taken from patent US20110237599A1, “HETEROCYCLIC INHIBITORS OF HISTAMINE RECEPTORS FOR THE TREATMENT OF DISEASE” (Kalypsys, Inc., priority 2010, published 2011).
